The results in this text go back to patent publication US10676431B2, “Phenylpyrrolidinone formyl peptide 2 receptor agonists” (BRISTOL-MYERS SQUIBB COMPANY, priority 2018, dated 2020).

The target in one assay is human FPR2 (Homo sapiens (Human), UniProt P25090). Briefly: FPR2 cyclic adenosine monophosphate (cAMP) assay. In kind it is cell-based. Particulars: CHO cells overexpressing human FPR2; forskolin 5 μM, IBMX 200 μM; inhibition of cAMP production, HTRF; read-out: hFPR2 cAMP2 EC50. The method, then:
(§1) FPR2 and FPR1 Cyclic Adenosine Monophosphate (cAMP) Assays. A mixture of forskolin (5 μM final for FPR2 or 10 μM final for FPR1) and IBMX (200 μM final) were added to 384-well Proxiplates (Perkin-Elmer) pre-dotted with test compounds in DMSO (1% final) at final concentrations in the range of 0.020 nM to 100 μM. Chinese Hamster Ovary cells (CHO) overexpressing human FPR1 or human FPR2 receptors were cultured in F-12 (Ham's) medium supplemented with 10% qualified FBS, 250 μg/ml zeocin and 300 μg/ml hygromycin (Life Technologies). Reactions were initiated by adding 2,000 human FPR2 cells per well or 4,000 human FPR1 cells per well in Dulbecco's PBS (with calcium and magnesium) (Life Technologies) supplemented with 0.1% BSA (Perkin-Elmer). The reaction mixtures were incubated for 30 min at room temperature. The level of intracellular cAMP was determined using the HTRF HiRange cAMP assay reagent kit (Cisbio) according to manufacturer's instruction. Solutions of cryptate conjugated anti-cAMP and d2 fluorophore-labelled cAMP were made in a supplied lysis buffer separately. Upon completion of the reaction, the cells were lysed with equal volume of the d2-cAMP solution and anti-cAMP solution. After a 1-h room temperature incubation, time-resolved fluorescence intensity was measured using the Envision (Perkin-Elmer) at 400 nm excitation and dual emission at 590 nm and 665 nm. A calibration curve was constructed with an external cAMP standard at concentrations ranging from 1 μM to 0.1 pM by plotting the fluorescent intensity ratio from 665 nm emission to the intensity from the 590 nm emission against cAMP concentrations. The potency and activity of a compound to inhibit cAMP production was then determined by fitting to a 4-parametric logistic equation from a plot of cAMP level versus compound concentrations.

The target in a further assay is human FPR1 (Homo sapiens (Human), UniProt P21462). Briefly: FPR1 cyclic adenosine monophosphate (cAMP) assay. Particulars: CHO cells overexpressing human FPR1; forskolin 10 μM, IBMX 200 μM; inhibition of cAMP production, HTRF; read-out: hFPR1 cAMP EC50. In kind it is cell-based. The method, then: as §1, with “After a 1-h room temperature incubation, time-resolved fluorescence intensity was measured using the Envision (Perkin-Elmer) at 400 nm excitation and dual emission at 590 nm and 665 nm. A calibration curve was constructed with an external cAMP standard at concentrations ranging from 1 μM to 0.1 pM by plotting the fluorescent intensity ratio from 665 nm emission to the intensity from the 590 nm emission against cAMP concentrations.” left out
Chain of human FPR1 (P21462 whole entry): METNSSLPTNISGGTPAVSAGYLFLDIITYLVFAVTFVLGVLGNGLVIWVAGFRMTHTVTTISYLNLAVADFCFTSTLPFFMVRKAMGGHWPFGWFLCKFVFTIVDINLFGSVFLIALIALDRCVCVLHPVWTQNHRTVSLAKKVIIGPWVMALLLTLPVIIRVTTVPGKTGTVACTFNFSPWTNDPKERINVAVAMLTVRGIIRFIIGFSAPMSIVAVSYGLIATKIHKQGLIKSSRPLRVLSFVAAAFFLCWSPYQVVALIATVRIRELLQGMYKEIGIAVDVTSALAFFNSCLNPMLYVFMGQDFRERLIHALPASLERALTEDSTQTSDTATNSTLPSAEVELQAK

Chain of human FPR2 (P25090 whole entry): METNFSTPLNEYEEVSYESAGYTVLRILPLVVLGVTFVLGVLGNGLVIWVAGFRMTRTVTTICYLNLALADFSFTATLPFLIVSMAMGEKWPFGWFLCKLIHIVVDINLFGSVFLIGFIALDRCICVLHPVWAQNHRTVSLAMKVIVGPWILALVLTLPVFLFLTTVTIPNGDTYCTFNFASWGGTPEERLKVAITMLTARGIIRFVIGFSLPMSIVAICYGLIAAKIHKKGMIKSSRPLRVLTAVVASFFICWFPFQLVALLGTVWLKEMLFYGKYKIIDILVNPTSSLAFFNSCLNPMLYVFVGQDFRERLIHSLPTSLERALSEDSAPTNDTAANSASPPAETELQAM

Take `CC(N)c1cccc(-c2ccc(N3CC[C@@H](NC(=O)Nc4ccc(Cl)cc4F)C3=O)c(F)c2F)c1` (stereo partly drawn) [Example 50]: the values for the EC50 on human FPR2 and on human FPR1 were 14 nM and 640 nM, respectively.
Take `CS(=O)(=O)Nc1ccccc1-c1ccc(N2CC[C@@H](NC(=O)Nc3ccc(Cl)cc3F)C2=O)c(C2CC2)c1` [Example 26]: the EC50 (as a rule, the concentration giving half of the maximal effect) on human FPR2 was found to be 0.55 nM; at human FPR1 it was 47 nM.
As for `CP(C)(=O)c1ccccc1-c1ccc(N2CC[C@@H](NC(=O)Nc3ccc(C(F)(F)F)cc3F)C2=O)c(Cl)c1F` [Example 98], the EC50 is 2.9 nM at human FPR2 and 270 nM on human FPR1.
For `CS(=O)(=O)c1ccccc1-c1ccc(N2CC[C@@H](NC(=O)Nc3ccc(C(F)(F)F)cc3)C2=O)c(F)c1F` [Example 11], in that order: 2.6 nM and 290 nM.
On the same counts, the results for `CS(=O)(=O)Nc1ccccc1-c1ccc(N2CC[C@@H](NC(=O)Nc3ccc(Cl)cn3)C2=O)c(F)c1F` [Example 17] are 16 nM and 4100 nM.
On to `CP(C)(=O)c1ccccc1-c1ccc(N2CC[C@@H](NC(=O)Nc3ccc(C(F)(F)F)cn3)C2=O)c(F)c1F` [Example 64], for which the results for the EC50 on human FPR2 and at human FPR1 were 8.8 nM and 2900 nM, respectively.
For `CP(C)(=O)c1ccccc1-c1cc(F)c(N2CC[C@@H](NC(=O)Nc3ccc(C(F)(F)F)cc3F)C2=O)c(F)c1` [Example 76], in that order: 4.1 nM and 2100 nM.
For `CP(C)(=O)c1ccccc1-c1ccc(N2CC[C@@H](NC(=O)Nc3ncc(Cl)cc3F)C2=O)c(F)c1F` [Example 56], the EC50 at human FPR2 was 7.5 nM; on human FPR1, 7700 nM.
For `O=C(Nc1ccc(Cl)cc1)N[C@@H]1CCN(c2ccc(-c3cccnc3F)c(F)c2F)C1=O` [Example 19], in that order: 22 nM and 78 nM.
As to `CC(C)c1cc(-c2ccccc2NS(C)(=O)=O)ccc1N1CC[C@@H](NC(=O)Nc2ccc(Cl)cc2F)C1=O` [Example 27], the figures for the EC50 at human FPR2 and at human FPR1 were 0.5 nM and 110 nM, respectively.
For the compound `CP(C)(=O)c1ccccc1-c1ccc(N2CC[C@@H](NC(=O)Nc3ccc(Cl)cn3)C2=O)c(F)c1F` [Example 49], the EC50 on human FPR2 was 5.6 nM; at human FPR1, 3400 nM.
For `CC1(C)CN(c2ccc(-c3cccnc3P(C)(C)=O)c(F)c2F)C(=O)[C@@H]1NC(=O)Nc1ccc(Cl)cc1F` [Example 113], in that order: 0.39 nM and 590 nM.
On the same counts, the results for `O=C(Nc1ccc(C(F)(F)F)cc1F)N[C@@H]1CCN(c2ccc(-c3cccc4c3S(=O)(=O)NC4)c(F)c2F)C1=O` [Example 97] are 7.2 nM and 110 nM.
On the same counts, the results for `COc1ccc(NC(=O)N[C@@H]2CCN(c3ccc(-c4ccccc4S(C)(=O)=O)c(F)c3F)C2=O)cc1` [Example 54] are 5.5 nM and 900 nM.
On to `CC1C[C@@H](NC(=O)Nc2ccc(C(F)(F)F)cc2F)C(=O)N1c1ccc(-c2cccnc2P(C)(C)=O)c(F)c1F` (stereo partly drawn) [Example 120], for which the EC50 at human FPR2 was 0.78 nM; on human FPR1, 160 nM.
For `CP(C)(=O)c1ccccc1-c1ccc(N2CC3(CC3)[C@@H](NC(=O)Nc3ccc(Cl)cc3F)C2=O)c(F)c1F` [Example 132], in that order: 0.48 nM and 28 nM.
As to `CP(C)(=O)c1ncccc1-c1ccc(N2C(=O)[C@H](NC(=O)Nc3ccc(C(F)(F)F)cc3F)C[C@H]2CO)c(F)c1F` [Example 123], the EC50 on human FPR2 was found to be 1.5 nM; at human FPR1, 240 nM.
For `CC(N)c1cccc(-c2ccc(N3CC[C@@H](NC(=O)Nc4ccc(Cl)cc4)C3=O)c(F)c2F)c1` (stereo partly drawn) [Example 22], in that order: 33 nM and 1500 nM.
On the same counts, the results for `CC(C)c1cc(-c2cccnc2NS(C)(=O)=O)ccc1N1CC[C@@H](NC(=O)Nc2ccc(Cl)cc2F)C1=O` [Example 47] are 2.8 nM and 64 nM.
On the same counts, the results for `CP(C)(=O)c1ccccc1-c1ccc(N2CC[C@@H](NC(=O)Nc3ccc(Cl)cc3F)C2=O)c(Cl)c1Cl` [Example 78] are 1.2 nM and 45 nM.
As for `CP(C)(=O)c1ccccc1-c1ccc(N2CC[C@@H](NC(=O)Nc3ccc(OC(F)(F)F)cc3)C2=O)c(F)c1F` [Example 51], the values for the EC50 at human FPR2 and on human FPR1 were 8.2 nM and 1300 nM, respectively.
On the same counts, the results for `CP(C)(=O)c1ncncc1-c1ccc(N2CC[C@@H](NC(=O)Nc3ccc(C(F)(F)F)cc3F)C2=O)c(F)c1F` [Example 93] are 12 nM and 780 nM.
For `CP(C)(=O)c1ccccc1-c1ccc(N2CC[C@@H](NC(=O)Nc3ccc(Cl)cc3F)C2=O)c(C(F)F)c1F` [Example 107], in that order: 11 nM and 5.8 nM.
Regarding `COc1ncccc1-c1ccc(N2CC[C@@H](NC(=O)Nc3ccc(Cl)cc3F)C2=O)c(F)c1F` [Example 118], the EC50 is 17 nM at human FPR2 and 320 nM at human FPR1.
For `CC(=O)NC(C)c1cccc(-c2ccc(N3CC[C@@H](NC(=O)Nc4ccc(Cl)cc4F)C3=O)c(F)c2F)c1` (stereo partly drawn) [Example 44], in that order: 43 nM and 450 nM.
For `CC1C[C@@H](NC(=O)Nc2ccc(Cl)cc2F)C(=O)N1c1ccc(-c2ccccc2S(C)(=O)=O)c(F)c1F` (stereo partly drawn) [Example 129], in that order: 2.4 nM and 19 nM.
For `CC1C[C@@H](NC(=O)Nc2ccc(C(F)(F)F)cc2F)C(=O)N1c1ccc(-c2ccccc2P(C)(C)=O)c(F)c1F` (stereo partly drawn) [Example 116], in that order: 1.21 nM and 890 nM.
Regarding `COc1ccc(NC(=O)N[C@@H]2CCN(c3ccc(-c4ccccc4P(C)(C)=O)c(F)c3F)C2=O)cc1` [Example 65], the EC50 on human FPR2 came out at 1.2 nM; at human FPR1, 2600 nM.
For `CC1C[C@@H](NC(=O)Nc2ccc(C(F)(F)F)cc2F)C(=O)N1c1ccc(-c2ccccc2P(C)(C)=O)c(F)c1F` (stereo partly drawn) [Example 115], in that order: 1.2 nM and 55 nM.
Consider `CP(C)(=O)c1ccccc1-c1ccc(N2CC[C@@H](NC(=O)Nc3ccc(Cl)cc3F)C2=O)c(F)c1C(F)(F)F` [Example 83], for which the concentration for a half-maximal effect (EC50) on human FPR2 came out at 0.41 nM; at human FPR1, 0.99 nM.
For `CS(=O)(=O)c1ccccc1-c1ccc(N2CC[C@@H](NC(=O)Nc3ccc(Cl)cn3)C2=O)c(F)c1F` [Example 24], in that order: 22 nM and 1400 nM.
For `CS(=O)(=O)c1ccccc1-c1cc(F)c(N2CC[C@@H](NC(=O)Nc3ccc(Cl)cc3F)C2=O)c(F)c1` [Example 52], in that order: 10 nM and 1100 nM.
On the same counts, the results for `CS(=O)(=O)Nc1ccccc1-c1ccc(N2CC[C@@H](NC(=O)Nc3ccc(Cl)cc3)C2=O)c(F)c1F` [Example 1, (R)—N-(4′-(3-(3-(4-Chlorophenyl)ureido)-2-oxopyrrolidin-1-yl)-2′,3′-difluoro-[1,1′-biphenyl]-2-yl)methanesulfonamide] are 0.43 nM and 200 nM.
Turning to `O=C(Nc1ccc(Cl)cc1F)N[C@@H]1CCN(c2ccc(-c3ccccc3CO)c(F)c2F)C1=O` [Example 2], the EC50 on human FPR2 amounted to 4.2 nM; on human FPR1 it was 360 nM.
On the same counts, the results for `CC(C)c1cc(-c2ccccc2NS(C)(=O)=O)ccc1N1CC[C@@H](NC(=O)Nc2ccc(C(F)(F)F)cc2F)C1=O` [Example 37] are 1.4 nM and 170 nM.
For `CP(C)(=O)c1ncncc1-c1ccc(N2CC[C@@H](NC(=O)Nc3ccc(Cl)cc3F)C2=O)c(F)c1F` [Example 84], in that order: 6 nM and 280 nM.
